Source: patent US8415373B2, “Isoquinolinone derivatives as NK3 antagonists” (H. Lundbeck A/S, priority 2008, dated 2013)

How the values were obtained:
human NK3 receptor = target: T1, human NK3 receptor (Homo sapiens, UniProt P29371); assay: NK3 receptor binding assay (SPA-based competition binding, 125I-NKB); settings: read-out: Affinity (Ki/nM)
T1 construct: expressed in transfected cells
T1 sequence (P29371 1-465): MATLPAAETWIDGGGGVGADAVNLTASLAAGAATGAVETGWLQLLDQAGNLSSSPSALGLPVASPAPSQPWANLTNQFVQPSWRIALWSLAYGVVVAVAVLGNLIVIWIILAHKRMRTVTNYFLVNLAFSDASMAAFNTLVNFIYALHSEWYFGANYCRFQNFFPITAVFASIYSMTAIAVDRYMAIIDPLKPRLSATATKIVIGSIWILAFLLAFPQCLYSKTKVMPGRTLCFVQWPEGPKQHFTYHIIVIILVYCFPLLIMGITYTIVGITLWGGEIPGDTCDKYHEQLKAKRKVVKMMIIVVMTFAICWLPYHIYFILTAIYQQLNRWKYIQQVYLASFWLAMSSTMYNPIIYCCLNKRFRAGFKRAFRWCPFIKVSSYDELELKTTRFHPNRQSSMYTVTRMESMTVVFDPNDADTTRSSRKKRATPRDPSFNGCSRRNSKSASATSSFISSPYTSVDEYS
Procedure: Membranepreparation: BHK cells stably expressing the human NK3 receptor were seeded in harvesting plates in Dulbeccos MEM containing GlutaMax (862 mg/l), 1 mM sodium pyruvate, 10% fetal calf serum, 1% Pen/Strep, 1 mg/ml G418 and were grown at 34° C. in a humidified atmosphere containing 10% CO2. To increase receptor expression, 10 μM trichotatin A was added to the media 24 hours before harvest of the cells at a confluency of app 90%. Prior to the harvesting, the cells were washed twice with PBS without Mg^2+ og Ca^2+ and subsequently scrapped of in 10 ml PBS pr harvesting plate. The cell suspension were centrifuged at 1500×G in three minutes before resuspension in 15 mM Tris-HCl pH 7.5 buffer containing 2 mM MgCl2; 0.3 mM EDTA and 1 mM EGTA (buffer A). The cell suspension was homogenised and subsequently centrifuged at 40000×G in 30 minutes. The membrane-pellet was resuspended in buffer A containing 250 mM sucrose, aliquoted and stored at −80° C.
Affinity assay description: The assay was performed as a SPA-based competition-binding assay in a 50 mM Tris pH 7.4 assay buffer containing 120 mM NaCl, 3 mM MnCl2, 40 μg/ml bacitracin, 2 μg/ml Chymostatin, 1 μg/ml Phosphoramidon and 4 μg/ml Leupeptin. […] The assay plate was subsequently under agitation incubated for 90 min at RT. The plate was centrifugated 10 minutes at 500×G and counted in a topcounter 5 minutes pr well.

[1] = Nature reviews, 4, 967-975, 2005; cited from earlier work
schizophrenics = settings: cited from earlier work
[2] = Nature reviews, 4, 967-975, 2005; cited from earlier work; remark: listed apart in the source

SMILES	Ki (human NK3 receptor) [nM]	other results
Cc1c(C(=O)N[C@H](c2cccc(F)c2)C2CC2)c2cccc(F)c2c(=O)n1Cc1cccnc1 [Example 2b, 8-Fluoro-3-methyl-1-oxo-2-pyridin-3-ylmethyl-1,2-dihydro-isoquinoline-4-carboxylic acid [(S)-cyclopropyl-(3-fluoro-phenyl)-methyl]-amide]	350	–
Cc1c(C(=O)N[C@H](c2cccc(F)c2)C2CC2)c2cccc(F)c2c(=O)n1Cc1cc(F)ccc1F [Example 2d, 2-(2,5-Difluoro-benzyl)-8-fluoro-3-methyl-1-oxo-1,2-dihydro-isoquinoline-4-carboxylic acid [(S)-cyclopropyl-(3-fluoro-phenyl)-methyl]-amide]	180	–
CC[C@H](NC(=O)c1c(O)c(-c2ccccc2)nc2ccccc12)c1ccccc1 [talnetant]	–	solubility [1]: poor; effect on cognitive behaviour of schizophrenics in clinical trials (schizophrenics; Curr. Opion. Invest. Drug, 6, 717-721, 2005): ameliorate; bioavailability [2]: poor; blood-brain barrier penetration [2]: poor; clearance [2]: relatively high
CC[C@H](NC(=O)c1c(C)n(Nc2ccccc2)c(=O)c2ccccc12)c1ccccc1 [Example 1a, 3-Methyl-1-oxo-2-phenylamino-1,2-dihydro-isoquinoline-4-carboxylic acid ((S)-1-phenyl-propyl)-amide]	200	–
Cc1nc(Cn2c(C)c(C(=O)N[C@H](c3cccc(F)c3)C3CCC3)c3cccc(F)c3c2=O)cs1 [Example 2ac, 8-Fluoro-3-methyl-2-(2-methyl-thiazol-4-ylmethyl)-1-oxo-1,2-dihydro-isoquinoline-4-carboxylic acid [(S)-cyclobutyl-(3-fluoro-phenyl)-methyl]-amide]	95	–
Cc1nnc(Cn2c(C)c(C(=O)N[C@H](c3cccc(F)c3)C3CCC3)c3cccc(F)c3c2=O)[nH]1 [Example 2o, 8-Fluoro-3-methyl-2-(5-methyl-4H-[1,2,4]triazol-3-ylmethyl)-1-oxo-1,2-dihydro-isoquinoline-4-carboxylic acid [(S)-cyclobutyl-(3-fluoro-phenyl)-methyl]-amide]	120	–
CC(=O)N(C)C1(c2ccccc2)CCN(CCC[C@]2(c3ccc(Cl)c(Cl)c3)CCCN(C(=O)c3ccccc3)C2)CC1 [Osanetant, osanetant]	–	solubility [1]: poor; effect versus placebo in clinical trials, in particular on positive symptoms of psychosis (schizophrenics; Am. J. Psychiatry, 161, 2004, 975-984): superior to placebo; bioavailability [2]: poor; blood-brain barrier penetration [2]: poor; clearance [2]: relatively high

Continued, in another order:

Ki (human NK3 receptor) [nM]	SMILES	other results
12	Cc1c(C(=O)N[C@H](c2cccc(F)c2)C2CCC2)c2cccc(F)c2c(=O)n1Cc1cocn1 [Example 2t, 8-Fluoro-3-methyl-2-oxazol-4-ylmethyl-1-oxo-1,2-dihydro-isoquinoline-4-carboxylic acid [(S)-cyclobutyl-(3-fluoro-phenyl)-methyl]-amide]	–
43	CCn1ccnc1Cn1c(C)c(C(=O)N[C@H](c2cccc(F)c2)C2CCC2)c2cccc(F)c2c1=O [Example 2ah, 2-(1-Ethyl-1H-imidazol-2-ylmethyl)-8-fluoro-3-methyl-1-oxo-1,2-dihydro-isoquinoline-4-carboxylic acid [(S)-cyclobutyl-(3-fluoro-phenyl)-methyl]-amide]	–
28	Cc1c(C(=O)N[C@H](c2cccc(F)c2)C2CC2)c2cccc(F)c2c(=O)n1Cc1ccoc1 [Example 2a, 8-Fluoro-2-furan-3-ylmethyl-3-methyl-1-oxo-1,2-dihydro-isoquinoline-4-carboxylic acid [(S)-cyclopropyl-(3-fluoro-phenyl)-methyl]-amide]	–
4	Cc1c(C(=O)N[C@H](c2ccc(F)c(F)c2)C2CCC2)c2cccc(F)c2c(=O)n1Cc1ncco1 [Example 4b, 8-Fluoro-3-methyl-2-oxazol-2-ylmethyl-1-oxo-1,2-dihydro-isoquinoline-4-carboxylic acid [(S)-cyclobutyl-(3,4-difluoro-phenyl)-methyl]-amide]	–
6.6	Cc1nonc1Cn1c(C)c(C(=O)N[C@H](c2cccc(F)c2)C2CCC2)c2cccc(F)c2c1=O [Example 2v, 8-Fluoro-3-methyl-2-(4-methyl-furazan-3-ylmethyl)-1-oxo-1,2-dihydro-isoquinoline-4-carboxylic acid [(S)-cyclobutyl-(3-fluoro-phenyl)-methyl]-amide]	–
7.8	Cc1c(C(=O)N[C@H](c2cccc(F)c2)C2CC2)c2cccc(F)c2c(=O)n1Cc1ccsc1 [Example 2g, 8-Fluoro-3-methyl-1-oxo-2-thiophen-3-ylmethyl-1,2-dihydro-isoquinoline-4-carboxylic acid [(S)-cyclopropyl-(3-fluoro-phenyl)-methyl]-amide]	–
28	Cc1cc(Cn2c(C)c(C(=O)N[C@H](c3cccc(F)c3)C3CCC3)c3cccc(F)c3c2=O)[nH]n1 [Example 2p, 8-Fluoro-3-methyl-2-(5-methyl-2H-pyrazol-3-ylmethyl)-1-oxo-1,2-dihydro-isoquinoline-4-carboxylic acid [(S)-cyclobutyl-(3-fluoro-phenyl)-methyl]-amide]	–
33	Cc1cc(Cn2c(C)c(C(=O)N[C@H](c3cccc(F)c3)C3CCC3)c3cccc(F)c3c2=O)no1 [Example 2m, 8-Fluoro-3-methyl-2-(5-methyl-isoxazol-3-ylmethyl)-1-oxo-1,2-dihydro-isoquinoline-4-carboxylic acid [(S)-cyclobutyl-(3-fluoro-phenyl)-methyl]-amide]	–
